According to patent US10689377B2 (Mirati Therapeutics, Inc., priority 2017, dated 2020):
Read-outs that look alike come from different tables or passages of the source.

Columns and labels:
KRas G12C [1] = target: KRas G12C (Homo sapiens, UniProt P01116, C118S/C51S/C80L/G12C); experiment: KRas G12C Modification Assay (LCMS detection of covalent adduct); assay type: binding
Protocol: A 10 μL aliquot of each protein solution was then transferred to a 384 well microtiter plate. Initial compound stocks were generated at fifty times their desired final assay concentration in DMSO.
Exemplary compounds of Formula (I) were diluted 25-fold into K-Ras Assay Buffer to a final of two times their final concentration. A 10 μL aliquot of each diluted compound solution was then added to each of the protein solutions in the microtiter plate to initiate reaction. […] At each time point, the reactions were quenched with 20 μL of a 25 mM acetic acid solution. […] Once all reactions were quenched, the plates were heat sealed and the samples were injected into a LC/MS system for data acquisition.
Samples were injected in their liquid phase onto a C-3 reverse phase column to remove assay buffer and prepare the samples for mass spectrometer. The proteins were eluted from the column using an acetonitrile gradient and fed directly into the mass analyzer. Initial raw data analysis took place in Agilent MassHunter software immediately post data acquisition.
Raw data analysis of the intact protein was exclusively a deconvolution of the multiple charge states of each protein in solution using a maximum entropy deconvolution provided in Mass Hunter. To minimize complexity, only the data over limited mass ranges were considered for analysis, with a minimum of one Dalton mass step intervals. The heights of all masses identified during raw data analysis were exported to be further analyzed in Spotfire® data analysis software.
Final data analysis was a multistep process in the Spotfire® data analysis software package. Briefly, each protein mass was calculated as a percent of the total signal of that sample, that percentage was then normalized to the percentage of signal of the protein in the absence of reactive compounds. Those normalized signals were reported as normalized percent of control (POC). […] Key: “A”≤25% POC; “B”>25% POC-≤50% POC; “C”>50% POC and ND=not determined.

KRas G12C [2] = target: KRas G12C (Homo sapiens, UniProt P01116, G12C); experiment: Cellular inhibition of KRas G12C measured by Phospho-ERK in NCI-H358 cells; assay type: cell-based; details: pERK(Thr202/Tyr204) normalized with GAPDH, NCI-H358 cells, 3 hours
Outline: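 Readout is pERK(Thr202/Tyr204) immunofluorescence normalized to GAPDH, expressed as percent of DMSO control and fitted with a 4-parameter curve for IC50. Attached NCI-H358 cells received compound for 3 hours in 0.5% DMSO, followed by fixation and methanol permeabilization.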

[3] = normalized percent of control, 5 μM concentration for 3 hours

Structure (SMILES) | POC (KRas G12C [1]; [3]) | IC50 (KRas G12C [2]; read-out: IC50) | POC (KRas G12C [1]; 5 µM) | IC50 (KRas G12C [2])
C=CC(=O)N1CCN(c2nc(OC[C@@H]3CCCN3C)nc3c2CCN(c2c(C)c(C)cc4[nH]ccc24)C3)C[C@@H]1CC#N [Example 466, 2-((S)-1-acryloyl-4-(7-(5,6-dimethyl-1H-indol-4-yl)-2-(((S)-1-methylpyrrolidin-2-yl)methoxy)-5,6,7,8-tetrahydropyrido[3,4-d]pyrimidin-4-yl)piperazin-2-yl)acetonitrile] | C (“C”>50% POC) | 0.1 to 1000 nM |  | 
C=CC(=O)N1CCN(c2nc(OCCCN3CCOCC3)nc3c2CCN(c2c(F)c(O)cc4ccccc24)C3)CC1 [Example 165, 1-[4-[7-(2-fluoro-3-hydroxy-1-naphthyl)-2-(3-morpholinopropoxy)-6,8-dihydro-5H-pyrido[3,4-d]pyrimidin-4-yl]piperazin-1-yl]prop-2-en-1-one] |  | > 1000 nM | C (key: “A”≤25% POC; “B”>25% POC-≤50% POC; “C”>50% POC) | 
C=CC(=O)N1CCN(c2nc(OC[C@@H]3CCCN3C)nc3c2CCN(c2ncccc2C(F)(F)F)C3)CC1CC#N (stereo partly drawn) [Example 373, 2-(1-acryloyl-4-(2-(((S)-1-methylpyrrolidin-2-yl)methoxy)-7-(3-(trifluoromethyl)pyridin-2-yl)-5,6,7,8-tetrahydropyrido[3,4-d]pyrimidin-4-yl)piperazin-2-yl)acetonitrile] | C (“C”>50% POC) | > 1000 nM |  | 
C=CC(=O)N1CCN(c2nc(OC[C@]3(C)CCCN3C)nc3c2CCN(c2cccc4ccccc24)C3)CC1CC#N (stereo partly drawn) [Example 251, 2-(1-acryloyl-4-(2-(((S)-1,2-dimethylpyrrolidin-2-yl)methoxy)-7-(naphthalen-1-yl)-5,6,7,8-tetrahydropyrido[3,4-d]pyrimidin-4-yl)piperazin-2-yl)acetonitrile] | C (“C”>50% POC) |  |  | 0.1 to 1000 nM
C=CC(=O)N1CCN(c2nc(OC[C@@H]3CCCN3C)nc3c2CCN(c2ccccc2C(C)C)C3)CC1 [Example 158, 1-[4-[7-(2-isopropylphenyl)-2-[[(2S)-1-methylpyrrolidin-2-yl]methoxy]-6,8-dihydro-5H-pyrido[3,4-d]pyrimidin-4-yl]piperazin-1-yl]prop-2-en-1-one] | C (“C”>50% POC) | > 1000 nM |  | 
C=CC(=O)N1CCN(c2nc(OC[C@H]3CCN(C)C3)nc3c2CCN(c2cccc4ccccc24)C3)CC1CC#N (stereo partly drawn) [Example 399, 2-(1-acryloyl-4-(2-(((S)-1-methylpyrrolidin-3-yl)methoxy)-7-(naphthalen-1-yl)-5,6,7,8-tetrahydropyrido[3,4-d]pyrimidin-4-yl)piperazin-2-yl)acetonitrile] | C (“C”>50% POC) | 0.1 to 1000 nM |  | 
C=CC(=O)N1CCN(c2nc(OC[C@@H]3CCCN3C)nc3c2CCN(c2c(C)c(C)cc4[nH]c(=O)[nH]c24)C3)CC1 [Example 456, 5,6-dimethyl-4-[2-[[(2S)-1-methylpyrrolidin-2-yl]methoxy]-4-(4-prop-2-enoylpiperazin-1-yl)-6,8-dihydro-5H-pyrido[3,4-d]pyrimidin-7-yl]-1,3-dihydrobenzimidazol-2-one] | C (“C”>50% POC) | > 1000 nM |  | 
C=C(F)C(=O)N1CCN(c2nc(OC[C@@H]3CC(F)(F)CN3C)nc3c2CCN(c2cccc4cccc(Cl)c24)C3)C[C@@H]1CC#N [Example 543] | C (“C”>50% POC) | 0.1 to 1000 nM |  | 
C=CC(=O)N1CCN(c2nc(OC[C@H]3CCCN3C)nc3c2CCN(c2cccc4ccccc24)C3)C[C@@H]1CC#N [Example 267, 2-((S)-1-acryloyl-4-(2-(((R)-1-methylpyrrolidin-2-yl)methoxy)-7-(naphthalen-1-yl)-5,6,7,8-tetrahydropyrido[3,4-d]pyrimidin-4-yl)piperazin-2-yl)acetonitrile] |  | 0.1 to 1000 nM | C (key: “A”≤25% POC; “B”>25% POC-≤50% POC; “C”>50% POC) | 
Cc1cccc2cccc(N3CCc4c(nc(OC[C@@H]5CCCN5C)nc4N4CCN(C(=O)/C=C/c5cccnc5)[C@@H](CC#N)C4)C3)c12 [Example 496, 2-((S)-4-(7-(8-methylnaphthalen-1-yl)-2-(((S)-1-methylpyrrolidin-2-yl)methoxy)-5,6,7,8-tetrahydropyrido[3,4-d]pyrimidin-4-yl)-1-((E)-3-(pyridin-3-yl)acryloyl)piperazin-2-yl)acetonitrile] | C (“C”>50% POC) | 0.1 to 1000 nM |  | 
C=C(F)C(=O)N1CCN(c2nc(OC[C@@H]3CC(F)(F)CN3C)nc3c2CCN(c2cccc4cccc(C)c24)C3)C[C@@H]1CC#N [Example 530, 2-((S)-4-(2-(((S)-4,4-difluoro-1-methylpyrrolidin-2-yl)methoxy)-7-(8-methylnaphthalen-1-yl)-5,6,7,8-tetrahydropyrido[3,4-d]pyrimidin-4-yl)-1-(2-fluoroacryloyl)piperazin-2-yl)acetonitrile] | C (“C”>50% POC) | 0.1 to 1000 nM |  | 

Second part, led by results:

POC (KRas G12C [1]; [3]) | IC50 (KRas G12C [2]; read-out: IC50) | Structure (SMILES) | POC (KRas G12C [1]; 5 µM) | IC50 (KRas G12C [2])
C (“C”>50% POC) | 0.1 to 1000 nM | C=C(F)C(=O)N1CCN(c2nc(OC[C@@H]3C[C@@H](OC)CN3C)nc3c2CCN(c2cccc4cccc(C)c24)C3)C[C@@H]1CC#N [Example 561, 2-[(2S)-1-(2-Fluoroprop-2-enoyl)-4-[2-[[(2S,4R)-4-methoxy-1-methyl-pyrrolidin-2-yl]methoxy]-7-(8-methyl-1-naphthyl)-6,8-dihydro-5H-pyrido[3,4-d]pyrimidin-4-yl]piperazin-2-yl]acetonitrile] |  | 
C (“C”>50% POC) | > 1000 nM | C=C(F)C(=O)N1CCN(c2nc(OC[C@@H]3CCC(=O)N3C)nc3c2CCN(c2cccc4cccc(Cl)c24)C3)C[C@@H]1CC#N [Example 572, 2-[(2S)-4-[7-(8-Chloro-1-naphthyl)-2-[[(2S)-1-methyl-5-oxo-pyrrolidin-2-yl]methoxy]-6,8-dihydro-5H-pyrido [3,4-d]pyrimidin-4-yl]-1-(2-fluoroprop-2-enoyl)piperazin-2-yl] acetonitrile] |  | 
C (“C”>50% POC) | 0.1 to 1000 nM | C=C(F)C(=O)N1CCN(c2nc(OC[C@@H]3CCCN3Cc3ccccc3)nc3c2CCN(c2cccc4cccc(C)c24)C3)C[C@@H]1CC#N [Example 596, 2-((S)-4-(2-(((S)-1-Benzylpyrrolidin-2-yl)methoxy)-7-(8-methylnaphthalen-1-yl)-5,6,7,8-tetrahydropyrido[3,4-d]pyrimidin-4-yl)-1-(2-fluoroacryloyl)piperazin-2-yl)acetonitrile] |  | 
C (“C”>50% POC) | 0.1 to 1000 nM | C=C(F)C(=O)N1CCN(c2nc(OC[C@@H]3CCCN3C)nc3c2CCN(c2c(C(F)(F)F)c(C)cc4[nH]ncc24)C3)C[C@@H]1CC#N [Example 555, 2-((S)-1-(2-Fluoroacryloyl)-4-(7-(6-methyl-5-(trifluoromethyl)-1H-indazol-4-yl)-2-(((S)-1-methylpyrrolidin-2-yl)methoxy)-5,6,7,8-tetrahydropyrido [3,4-d]pyrimidin-4-yl)piperazin-2-yl)acetonitrile] |  | 
C (“C”>50% POC) | 0.1 to 1000 nM | C=C(F)C(=O)N1CCN(c2nc(OC[C@@H]3CCCN3CCF)nc3c2CCN(c2cccc4cccc(Cl)c24)C3)C[C@@H]1CC#N [Example 598, 2-((S)-4-(7-(8-Chloronaphthalen-1-yl)-2-(((S)-1-(2-fluoroethyl)pyrrolidin-2-yl)methoxy)-5,6,7,8-tetrahydropyrido[3,4-d]pyrimidin-4-yl)-1-(2-fluoroacryloyl)piperazin-2-yl)acetonitrile] |  | 
C (“C”>50% POC) | 0.1 to 1000 nM | C=C(F)C(=O)N1CCN(c2nc(OC[C@@H]3CCN(C)C3)nc3c2CCN(c2cccc4cccc(Cl)c24)C3)C[C@@H]1CC#N [Example 575, 2-[(2S)-4-[7-(8-Chloro-1-naphthyl)-2-[[(3R)-1-methylpyrrolidin-3-yl]methoxy]-6,8-dihydro-5H-pyrido[3,4-d]pyrimidin-4-yl]-1-(2-fluoroprop-2-enoyl)piperazin-2-yl]acetonitrile] |  | 
C (“C”>50% POC) | 0.1 to 1000 nM | Cc1cccc2cccc(N3CCc4c(nc(OCCCN5C[C@@H]6C[C@H]5CO6)nc4N4CCN(C(=O)/C=C/CF)[C@@H](CC#N)C4)C3)c12 [Example 565, 2-[(2S)-1-[(E)-4-Fluorobut-2-enoyl]-4-[7-(8-methyl-1-naphthyl)-2-[3-[(1S,4S)-2-oxa-5-azabicyclo[2.2.1]heptan-5-yl]propoxy]-6,8-dihydro-5H-pyrido[3,4-d]pyrimidin-4-yl]piperazin-2-yl]acetonitrile] |  | 
C (“C”>50% POC) | 0.1 to 1000 nM | C=C(F)C(=O)N1CCN(c2nc(OC[C@@H]3CCCN3)nc3c2CCN(c2cccc4cccc(C)c24)C3)C[C@@H]1CC#N [Example 568, 2-[(2S)-1-(2-Fluoroprop-2-enoyl)-4-[7-(8-methyl-1-naphthyl)-2-[[(2S)-pyrrolidin-2-yl]methoxy]-6,8-dihydro-5H-pyrido[3,4-d]pyrimidin-4-yl]piperazin-2-yl]acetonitrile] |  | 
